According to publication PMC12040169 (PLOS Biology, 2025):

Assay: in vitro
Settings: human, hela cells, % viability

SMILES	viability at 28.5 h, 10 µM
COc1ccc(CCNC(=O)CN2CCCC2Cn2cccn2)cc1 (stereo not drawn) [CBK306147]	92.1%
Cc1ccccc1CSCC(=O)Nc1ccc(S(=O)(=O)N2CCCCC2)cc1 [CBK264006]	103%
O=C(O)CSc1nnc(-c2ccc3c(c2)OCO3)n1-c1ccccc1 [CBK131690]	105%
Cc1ccccc1COc1cccc2c1CCCC2 [CBK002562]	98.2%
Cc1cc(NC(=O)CCN2CCC(N3CCNC3=O)CC2)no1 [CBK304909]	89.9%
CC(C)C[C@@H]1N[C@H](C(=O)NCCN(C)C)Cc2c[nH]c3cccc1c23 [CBK289417]	92.9%
O=C(O)CCC(=O)Nc1ccccc1C(=O)N1CCCCC1 [CBK266100]	99.5%
CCN1CCCC(NC(=O)COc2nn(C)c3nc(C)cc(C)c23)C1 (stereo not drawn) [CBK305224]	113%
CSCCCNC(=O)N1CCN(CCN2CCOCC2)CC1 [CBK155669]	90.9%
COc1ccc(OC(C)C(=O)O/N=C(\N)c2ccccn2)cc1 (stereo not drawn) [CBK266669]	100%
CC(C)Cn1c(=O)[nH]c2ncc(-c3cccc4ccccc34)nc21 [CBK064194]	107%
CC(C)Oc1ncc(C(=O)NCc2cccc(NC(N)=O)c2)cc1Cl [CBK306327]	94.4%
O=C(CN1C(=O)N2CCCN=C2c2ccccc21)N1CCCCCC1 [CBK284399]	96.4%
Cc1nn(Cc2nnc(SCC(=O)C(C)(C)C)o2)c(C)c1Br [CBK005646]	92.1%
Cc1noc(C)c1S(=O)(=O)Nc1ccc2nsnc2c1 [CBK062223]	90.4%
CC(=O)Nc1cccc(C(=O)OCC(=O)c2cccs2)c1 [CBK306040]	105%
CNC(=O)c1cc2ncc(C(F)(F)F)cc2s1 [CBK089882]	93.1%
O=[N+]([O-])c1cc(C(F)(F)F)ccc1NCCCNc1nc(N2CCOCC2)nc2ccccc12 [CBK266567]	112%
COc1ccc([C@H]2CN(C(=O)c3ccccc3)[C@@H]3CCN(Cc4ccsc4)C[C@H]23)cc1 [CBK285585]	103%
Cc1nn(CC(=O)NC2CCCC2)c(=O)c2cc3sccc3n12 [CBK284023]	104%
CCN1CCN(c2cc(C)nc3c(-c4ccccc4)cnn23)CC1 [CBK287793]	88.4%

SMILES	viability at 28.5 h, 10 µM
O=C(OCc1nc2ccccc2[nH]1)N1CCOCC1 [CBK200146]	109%
O=C(NCCN1CCOCC1)C1(c2ccccc2)CCCC1 [CBK149538]	95.2%
O=C(CC(=O)Nc1c(Cl)cccc1C(F)(F)F)Nc1c(Cl)cccc1C(F)(F)F [CBK263148]	103%
Nc1ccc(C(=O)Nc2nc3ccccc3s2)cc1 [CBK287608]	95.9%
COc1ccc(CCCNC(=N)N)cc1Cl [CBK261404G]	93.4%
Nc1ncc(-c2ccncc2)nc1NCC1CCOCC1 [CBK063816]	105%
O=C(O)c1ccc(NC(=O)C2CCN(S(=O)(=O)c3ccccc3)CC2)cc1 [CBK265181]	110%
O=C(CCS(=O)(=O)c1cc(Cl)ccc1Cl)OCC(=O)c1ccccc1 [CBK261256]	90.1%
O=C1NC(=O)C(CC(=O)N2CCN(Cc3nc4ccccc4s3)CC2)S1 (stereo not drawn) [CBK295654]	98.3%
C=CCNC(=O)[C@H]1C=CCN1C(=O)Nc1ccccc1Cl [CBK282348]	99%
Cc1ccc2c(c1)C(C[C@H]1CN(C(=O)C3CCCC3)CC[C@H]1CC(=O)O)=NCC2 [CBK289163]	88.5%
O=C(NCCc1cccs1)Nc1ccccc1 [CBK269917]	88.7%
Cn1cc(C(=O)N2CCC(c3ccccc3)C2)c2ccccc2c1=O (stereo not drawn) [CBK281921]	103%
CCc1nccn1CCN1CCCC(COc2ccccc2F)C1 (stereo not drawn) [CBK307416]	93.4%
Cc1nn(CC(=O)OC(C)C)c(=O)c2cc3sccc3n12 [CBK284022]	93.7%
O=C(C1CC2C=CC1C21CC1)N1CCN(c2nccs2)CC1 (stereo not drawn) [CBK281640]	90.4%
S=C(NCCN1CCCCC1)NCc1ccccc1 [CBK263066]	112%
Cc1ccc(C(=O)N2CN(C(=O)CNC3CC3)CC2(C)C)cc1 [CBK089574C]	98.4%
COc1ccc(-n2ccn(C(=O)CCC3CCCC3)c2=O)cc1 [CBK106595]	90.4%
Cc1cc(O)nc(C(C)N2CCN(Cc3noc(C(C)(C)C)n3)CC2)n1 (stereo not drawn) [CBK305249]	95.4%
CCOC(=O)N1CCC(NS(=O)(=O)Cc2ccccc2)CC1 [CBK045457]	90.7%

SMILES	viability at 28.5 h, 10 µM
CN(C)CCN1CCN(c2nc(-c3cccnc3)cnc2N)CC1 [CBK063503]	93.6%
CCN(C)C(=O)c1cn2cc(-c3cc(C)oc3C)n(C)c(=O)c2n1 [CBK307494]	94.9%
Cc1nc(-c2ccccc2)sc1CNC(=O)COc1ccc(F)cc1 [CBK092350]	86.3%
CCN(C(=O)c1ccc(C)nc1)[C@H]1CCO[C@@H](c2cccc(-c3cc(F)cc(F)c3)c2)C1 [CBK285856]	91%
O=C(O)CCC(=O)N1C[C@@H]2C[C@H](C1)c1ccc(-c3ccc4ccccc4c3)c(=O)n1C2 [CBK289179]	107%
c1ccc(CNc2nc(-c3ccsc3)cn3ccnc23)cc1 [CBK037868]	88%
OC(c1cccs1)C1CCN(Cc2ccc(-n3cncn3)cc2)CC1 (stereo not drawn) [CBK306523]	97.8%
CN1C(=O)c2ccccc2C(=O)[C@@]2(C)CN(C(=O)c3ccccc3)C[C@@H]12 [CBK281685]	93.2%
Cc1ccc(S(=O)(=O)Nc2ccc(C3(c4ccc(NS(=O)(=O)c5ccc(C)cc5)cc4)c4ccccc4-c4ccccc43)cc2)cc1 [CBK261154]	102%
CCOC(=O)c1c(NC(=S)N2CCN(S(C)(=O)=O)CC2)sc(C)c1-c1ccccc1 [CBK267072]	98%
Cn1c(-c2c(CCC(=O)O)oc3cc(O)ccc3c2=O)nc2ccccc21 [CBK264831]	96%
O=C(CC1NC(=O)N(C2CCCCC2)C1=O)Nc1cccc(CCc2ccncc2)c1 (stereo not drawn) [CBK285563]	93.1%
COc1ccc(N2C(=O)CC(N3CCN(c4ccc(S(=O)(=O)N5CCCC5)cc4)CC3)C2=O)cc1 (stereo not drawn) [CBK268851]	85.1%
O=C(Nc1cccc(C(F)(F)F)c1)N[C@H]1[C@H](O)[C@@H](N2CCCC2)[C@@H]2OC[C@H]1O2 [CBK288828]	105%
OCC(CNc1ncnc2nc[nH]c12)Cc1ccccn1 (stereo not drawn) [CBK304412]	83.4%
CC(=O)NCCCCCC(=O)N1CCN(c2ccc(C(F)(F)F)cc2)CC1 [CBK091312]	92.8%
O=C(c1ccc(Cl)cc1)c1ccc(OCC(=O)N2CCN(C(=O)c3ccco3)CC2)cc1 [CBK295658]	89.2%
CN1CCN(CCOC(=O)N2CCC(C(F)(F)F)CC2)CC1 [CBK200206]	103%
COc1ccc(NC(=O)CSc2ncnc3c2oc2ccccc23)c(OC)c1 [CBK287395]	87%
Cn1cnc(S(=O)(=O)N(c2ccc(C(C)(C)C)cc2)C2CCNCC2)c1 [CBK165046T]	87.5%

Same assay, conditions: human, hela cells, % viability, bulk resorufin, single well

SMILES	viability at 28.5 h, 10 µM
Cc1ccc(C=C2C(=O)NC(=O)NC2=O)cc1[N+](=O)[O-] [CBK262102]	97.9%
